{"source": "patent US20070270358A1", "about": "“Cosmetic and/or Pharmaceutical Composition for the Treatment of the Rosacea” (priority 2004, published 2007)", "key": {"[1]": {"test_system": "human keratinocytes", "assay": "Dosage of ROS (DCF fluorescence) after UV-induced oxidative stress", "format": "cell-based", "settings": "for anti-radical protection percentage / fluorescence, directly proportional to the quantity of ROS (average value): after 5 minutes exposure to UV", "protocol": "The substance to be tested was diluted in a salt solution to the final concentrations required. The dichlorofluorescein acetate (DCF) was diluted apart in a special buffer. The DCF reacts with the free radicals if present giving rise to a fluorescent derivative, and the fluorometry reading gives a quantity related to the presence of this substance in the cells analyzed. A sufficient number of cells (30,000 cells/well) is sown in the wells of a […]. After a pre-incubation period overnight with the different sample concentrations, the culture medium is sucked out of the wells and replaced with 500 μl of DCF solution. The plates are placed in a CO2 thermo regulator at 37° C. to incubate for 15 minutes. At this point the DCF solution is discarded. After a 5 minute period of exposure to UV rays, the oxidative stress is interrupted, and the fluorometry reading taken. The lamp used in the experiments reproduces the solar spectrum with a constant UVA emission field of between 315 and 400 nm. The emission of UVB is appropriately shielded to avoid direct cytotoxic damage to the cell cultures. The plate containing the cells is irradiated at room temperature with an intensity of 1.7 mW/cm^2 of UVA […].\nReading of the fluorometry is carried out at the excitation wave length of 485 nm and emission of 530 nm directly on the plates (Toxicol. Letters 1997-93: 47-54).\n(§1) • Control negative (C−): cells not treated • Control positive (C+): cells exposed to UV without protective treatment • Samples: • cells exposed to UV in the presence of protective substances: • Vitamin C 0.1 mg/ml (anti-oxidant of comparison) • SOL.—Solution 20% dimethyl sulfone\nThe results are given in terms of fluorescence, that are directly proportional to the quantity of ROS\nThe anti-radical protection percentage offered by the substance is calculated using the following formula: […]"}, "[2]": {"test_system": "human keratinocytes", "format": "cell-based", "protocol": "A second test, through the determination of the vitality of the cells using the MTT method, enables evaluation of the total damage suffered by the cells (in the absence of and following oxidative stress) and the protective effect produced by the substance tested in different concentrations.\nBefore and following exposure to UV rays, an MTT test is carried out to evaluate the toxic impact on the cell energetic system (mitochondrions) compared with cells not protected from oxidative stress a cells not exposed to stress. The MTT test is simple, accurate and gives reproducible results. This method, originally developed by Mossman […], is based on a yellow substance in solution. The mitochondrial dehydrogenize of live cells is able to cut the tetrazolium ring causing the formation of insoluble purple coloured salts. The crystals can de dissolved in acidified isopropanol and the purple solution formed can be spectrophotometrically dosed. An increase/decrease in number of the live cells can be evaluated as corresponding to the increase or decrease in the optical absorption due to formazano salts, giving a quantification of the global cytotoxic event.\nas §1\nCellular vitality as evaluated in the absence of oxidative stress (UV−) and after 5 minutes of exposure to […]\nAbsorption values (O.D) at 540 nm (in proportion to the number of cells). Evaluation of cellular vitality in the absence of oxidative stress"}}, "note": "Where two headings read alike, the source gives them in different places."}
{"molecule": "CS(C)(=O)=O", "note": "[MSM SOL. 20%, dimethyl sulfone]", "values": [{"measurement": "anti-radical protection percentage", "setting": "[1]; 0.003 mg/ml", "result": 41.2, "unit": "%"}, {"measurement": "fluorescence, directly proportional to the quantity of ROS (average value)", "setting": "[1]; 0.003 mg/ml", "result": 17820}, {"measurement": "anti-radical protection percentage", "setting": "[1]; 0.01 mg/ml", "result": 37.5, "unit": "%"}, {"measurement": "fluorescence, directly proportional to the quantity of ROS (average value)", "setting": "[1]; 0.01 mg/ml", "result": 18887}, {"measurement": "anti-radical protection percentage", "setting": "[1]; 0.03 mg/ml", "result": 34.8, "unit": "%"}, {"measurement": "fluorescence, directly proportional to the quantity of ROS (average value)", "setting": "[1]; 0.03 mg/ml", "result": 19686}, {"measurement": "anti-radical protection percentage", "setting": "[1]; 0.09 mg/ml", "result": 43.7, "unit": "%"}, {"measurement": "fluorescence, directly proportional to the quantity of ROS (average value)", "setting": "[1]; 0.09 mg/ml", "result": 17117}, {"measurement": "anti-radical protection percentage", "setting": "[1]; 0.28 mg/ml", "result": 38.3, "unit": "%"}, {"measurement": "fluorescence, directly proportional to the quantity of ROS (average value)", "setting": "[1]; 0.28 mg/ml", "result": 18675}, {"measurement": "anti-radical protection percentage", "setting": "[1]; 0.83 mg/ml", "result": 44.6, "unit": "%"}, {"measurement": "fluorescence, directly proportional to the quantity of ROS (average value)", "setting": "[1]; 0.83 mg/ml", "result": 16848}, {"measurement": "anti-radical protection percentage", "setting": "[1]; 2.5 mg/ml", "result": 41.4, "unit": "%"}, {"measurement": "fluorescence, directly proportional to the quantity of ROS (average value)", "setting": "[1]; 2.5 mg/ml", "result": 17782}, {"measurement": "antioxidant activity: presence of ROS in keratinocyte cultures subjected to oxidative stress", "setting": "[1]; concentration between 0.003 and 2.5 mg/ml", "result": "significantly reduces the presence of reactive oxygen species (ROS)"}, {"measurement": "cellular vitality, absorption value at 540 nm (average value)", "setting": "[2]; 0.003 mg/ml, after 5 minutes exposure to UV (UV+)", "result": 3.020, "unit": "O.D"}, {"measurement": "cellular vitality, absorption value at 540 nm (average value)", "setting": "[2]; 0.01 mg/ml, after 5 minutes exposure to UV (UV+)", "result": 2.977, "unit": "O.D"}, {"measurement": "cellular vitality, absorption value at 540 nm (average value)", "setting": "[2]; 0.03 mg/ml, after 5 minutes exposure to UV (UV+)", "result": 2.940, "unit": "O.D"}, {"measurement": "cellular vitality, absorption value at 540 nm (average value)", "setting": "[2]; 0.09 mg/ml, after 5 minutes exposure to UV (UV+)", "result": 2.987, "unit": "O.D"}, {"measurement": "cellular vitality, absorption value at 540 nm (average value)", "setting": "[2]; 0.28 mg/ml, after 5 minutes exposure to UV (UV+)", "result": 2.832, "unit": "O.D"}, {"measurement": "cellular vitality, absorption value at 540 nm (average value)", "setting": "[2]; 0.83 mg/ml, after 5 minutes exposure to UV (UV+)", "result": 2.838, "unit": "O.D"}, {"measurement": "cellular vitality, absorption value at 540 nm (average value)", "setting": "[2]; 2.5 mg/ml, after 5 minutes exposure to UV (UV+)", "result": 2.777, "unit": "O.D"}, {"measurement": "cytoprotective activity: cellular vitality following exposure to UV radiation", "setting": "[2]; concentration between 0.003 and 2.5 mg/ml, versus non-treated keratinocytes", "result": "cellular vitality of treated Keratinocytes is greater compared with non-treated Keratinocytes"}]}
{"molecule": "O=C1O[C@H]([C@@H](O)CO)C(O)=C1O", "note": "[VIT C, Vitamin C, reference compound]", "values": [{"measurement": "fluorescence, directly proportional to the quantity of ROS (average value)", "setting": "[1]; 0.1 mg/ml", "result": 20837}, {"measurement": "cellular vitality, absorption value at 540 nm (average value)", "setting": "[2]; 0.1 mg/ml, after 5 minutes exposure to UV (UV+)", "result": 2.904, "unit": "O.D"}, {"measurement": "cellular vitality, absorption value at 540 nm (average value)", "setting": "[2]; human, 0.1 mg/ml", "result": 2.977, "unit": "O.D"}]}
